Results: patent US12077503B2, “Substituted cyclic amides and their use as herbicides” (FMC CORPORATION, priority 2015, dated 2024)
Like-named read-outs stand apart in the source and are kept apart here.

Columns and labels:
Assay type in all cases: in vivo
[1] = test system: Kochia (Kochia scoparia); test: Test A preemergence; details: Bassia scoparia, pre-emergence, 240 h, 0 to 100 scale (0 no effect, 100 complete control), read-out: Plant response rating, Kochia; for pest or weed control at 500 g/ha: 500 g ai/ha, preemergence; for pest or weed control at 125 g/ha: Preemergence, 125 g ai/ha
Outline: (§1)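 Seeds sprayed preemergence with a directed soil spray, or plants at 2 to 10 cm height and one- to two-leaf stage sprayed postemergence, with test chemicals in a non-phytotoxic solvent mixture containing surfactant, in loam soil–sand blend. Injury rated visually against untreated controls after about 10 d in greenhouse, 0 (no effect) to 100 (complete control).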

[2] = test system: barnyardgrass (Echinochloa crus-galli); test: Test A preemergence; details: Echinochloa crus-galli, pre-emergence, 240 h, 0 to 100 scale (0 no effect, 100 complete control), read-out: Plant response rating, Barnyardgrass; for pest or weed control at 500 g/ha: 500 g ai/ha, preemergence; for pest or weed control at 125 g/ha: Preemergence, 125 g ai/ha
Outline: as §1

[3] = test system: giant foxtail (Setaria faberii); test: Test A preemergence; details: Setaria faberi, pre-emergence, 240 h, 0 to 100 scale (0 no effect, 100 complete control), read-out: Plant response rating, Foxtail, Giant; for pest or weed control at 500 g/ha: 500 g ai/ha, preemergence; for pest or weed control at 125 g/ha: Preemergence, 125 g ai/ha
Outline: as §1

[4] = test system: pigweed (Amaranthus retroflexus); test: Test A preemergence; details: Amaranthus retroflexus, pre-emergence, 240 h, 0 to 100 scale (0 no effect, 100 complete control), read-out: Plant response rating, Pigweed; for pest or weed control at 500 g/ha: 500 g ai/ha, preemergence; for pest or weed control at 125 g/ha: Preemergence, 125 g ai/ha
[5] = test system: ragweed (common ragweed, Ambrosia elatior); test: Test A preemergence; details: Ambrosia artemisiifolia, pre-emergence, 240 h, 0 to 100 scale (0 no effect, 100 complete control), read-out: Plant response rating, Ragweed; for pest or weed control at 500 g/ha: 500 g ai/ha, preemergence; for pest or weed control at 125 g/ha: Preemergence, 125 g ai/ha
Outline: as §1

[6] = test system: ryegrass, Italian (Italian ryegrass, Lolium multiflorum); test: Test A preemergence; details: Lolium multiflorum, pre-emergence, 240 h, 0 to 100 scale (0 no effect, 100 complete control), read-out: Plant response rating, Ryegrass, Italian; for pest or weed control at 500 g/ha: 500 g ai/ha, preemergence; for pest or weed control at 125 g/ha: Preemergence, 125 g ai/ha
Outline: as §1

[7] = test system: blackgrass (Alopecurus myosuroides); test: Test A postemergence; details: Alopecurus myosuroides, post-emergence, 240 h, Postemergence; for pest or weed control at 125 g/ha: 125 g ai/ha; for pest or weed control at 500 g/ha: 500 g ai/ha, visual injury, 0 to 100 scale (0 no effect, 100 complete control), approx. 10 d
Outline: as §1

[8] = test system: giant foxtail (Setaria faberii); test: Test A postemergence; details: Setaria faberi, post-emergence, 240 h, Postemergence; for pest or weed control at 125 g/ha: 125 g ai/ha; for pest or weed control at 500 g/ha: 500 g ai/ha, visual injury, 0 to 100 scale (0 no effect, 100 complete control), approx. 10 d
Outline: as §1

[9] = test system: pigweed (Amaranthus retroflexus); test: Test A postemergence; details: Amaranthus retroflexus, post-emergence, 240 h, Postemergence; for pest or weed control at 125 g/ha: 125 g ai/ha; for pest or weed control at 500 g/ha: 500 g ai/ha, visual injury, 0 to 100 scale (0 no effect, 100 complete control), approx. 10 d
Outline: as §1

[10] = test system: ryegrass, Italian (Italian ryegrass, Lolium multiflorum); test: Test A postemergence; details: Lolium multiflorum, post-emergence, 240 h, Postemergence; for pest or weed control at 125 g/ha: 125 g ai/ha; for pest or weed control at 500 g/ha: 500 g ai/ha, visual injury, 0 to 100 scale (0 no effect, 100 complete control), approx. 10 d
Outline: as §1

[11] = test system: wheat (Triticum aestivum); test: Test A postemergence; details: Triticum aestivum, post-emergence, 240 h, Postemergence; for plant injury at 125 g/ha: 125 g ai/ha; for plant injury at 500 g/ha: 500 g ai/ha, visual injury, 0 to 100 scale (0 no effect, 100 complete control), approx. 10 d
Outline: as §1

[12] = test system: barnyardgrass (Echinochloa crus-galli); test: Test B flooded paddy test; details: Echinochloa crus-galli, 360 h, Flood, 250 g ai/ha; visually evaluated after 13 to 15 d; read-out: Plant response rating, Barnyardgrass (0 to 100 scale where 0 is no effect and 100 is complete control)
Outline: (§2)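 2-leaf plants; pots flooded 3 cm over soil; cpd added to paddy water; depth held; greenhouse 13–15 d; visual rating vs controls, 0 = no effect, 100 = complete control.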

[13] = test system: ducksalad (Heteranthera limosa); test: Test B flooded paddy test; details: Heteranthera limosa, 360 h, Flood, 250 g ai/ha; visually evaluated after 13 to 15 d; read-out: Plant response rating, Ducksalad (0 to 100 scale where 0 is no effect and 100 is complete control)
Outline: as §2

[14] = test system: rice (Oryra sativa); test: Test B flooded paddy test; details: Oryza sativa, 360 h, Flood, 250 g ai/ha; visually evaluated after 13 to 15 d; read-out: Plant response rating, Rice (0 to 100 scale where 0 is no effect and 100 is complete control)
Outline: as §2

[15] = test system: sedge, umbrella (small-flower umbrella sedge, Cyperus difformis); test: Test B flooded paddy test; details: Cyperus difformis, 360 h, Flood, 250 g ai/ha; visually evaluated after 13 to 15 d; read-out: Plant response rating, Sedge, Umbrella (0 to 100 scale where 0 is no effect and 100 is complete control)
Outline: as §2

[16] = read-out: Plant response rating, Blackgrass
[17] = read-out: Plant response rating, Foxtail, Giant
[18] = read-out: Plant response rating, Pigweed
[19] = read-out: Plant response rating, Ryegrass, Italian
[20] = read-out: Plant response rating, Wheat

SMILES	pest or weed control at 500 g/ha [1] [%]	pest or weed control at 125 g/ha [1] [%]	pest or weed control at 500 g/ha [2] [%]	pest or weed control at 125 g/ha [2] [%]	pest or weed control at 500 g/ha [3] [%]	pest or weed control at 125 g/ha [3] [%]	pest or weed control at 500 g/ha [4] [%]	pest or weed control at 125 g/ha [4] [%]	pest or weed control at 500 g/ha [5] [%]	pest or weed control at 125 g/ha [5] [%]	pest or weed control at 500 g/ha [6] [%]	pest or weed control at 125 g/ha [6] [%]	pest or weed control at 500 g/ha [7, 16] [%]	pest or weed control at 500 g/ha [8, 17] [%]	pest or weed control at 500 g/ha [9, 18] [%]	pest or weed control at 500 g/ha [10, 19] [%]	plant injury at 500 g/ha [11, 20] [%]	pest or weed control at 250 g/ha [12] [%]	pest or weed control at 250 g/ha [13] [%]	pest or weed control at 250 g/ha [14] [%]	also measured
CN1C[C@H](c2ccc(C(F)(F)F)nc2)[C@@H](C(=O)Nc2ccc(F)c(F)c2F)C1=O [Compound 1373]	100	100	100	90	100	100	100	90	100	100	90	60	60	90	90	50	60	85	100	0	pest or weed control at 125 g/ha ([7]; visual rating about 10 d after treatment, read-out: Blackgrass plant response rating (0 to 100 scale)): 50%; pest or weed control at 125 g/ha ([8]; visual rating about 10 d after treatment, read-out: Foxtail, Giant plant response rating (0 to 100 scale)): 90%; pest or weed control at 125 g/ha ([9]; visual rating about 10 d after treatment, read-out: Pigweed plant response rating (0 to 100 scale)): 70%; pest or weed control at 125 g/ha ([10]; visual rating about 10 d after treatment, read-out: Ryegrass, Italian plant response rating (0 to 100 scale)): 30%; plant injury at 125 g/ha ([11]; visual rating about 10 d after treatment, read-out: Wheat plant response rating (0 to 100 scale)): 50%; pest or weed control at 250 g/ha [15]: 0%
CN1CC[C@H](c2cccc(C(F)(F)F)c2)[C@@H](C(=O)Nc2ccc(F)c(F)c2F)C1=O [Compound 1395]	0	0	90	90	90	90	0	0	0	0	40	50	0	90	0	20	40	90	80	10	pest or weed control at 125 g/ha ([7]; visual injury after approx. 10 d, 0 to 100 scale, 0 no effect, 100 complete control, read-out: Plant response rating, Blackgrass): 70%; pest or weed control at 125 g/ha ([8]; visual injury after approx. 10 d, 0 to 100 scale, 0 no effect, 100 complete control, read-out: Plant response rating, Foxtail, Giant): 90%; pest or weed control at 125 g/ha ([9]; visual injury after approx. 10 d, 0 to 100 scale, 0 no effect, 100 complete control, read-out: Plant response rating, Pigweed): 0%; pest or weed control at 125 g/ha ([10]; visual injury after approx. 10 d, 0 to 100 scale, 0 no effect, 100 complete control, read-out: Plant response rating, Ryegrass, Italian): 20%; plant injury at 125 g/ha ([11]; visual injury after approx. 10 d, 0 to 100 scale, 0 no effect, 100 complete control, read-out: Plant response rating, Wheat): 20%; pest or weed control at 250 g/ha [15]: 0%
